According to patent publication US4431665A, “Acylated laidlomycin derivatives” (priority 1980, dated 1984):
Like-named read-outs stand apart in the source and are kept apart here.

Assays:
[1] = test system: rumen contents (lactic acid accumulation); assay: Inhibition of lactic acid accumulation, second batch culture fermentation of rumen contents with glucose; format: cell-based, bovine (rumen fistulated); conditions: 6 h, 39° C.; for Lactic Acid Accumulation: Table 6, 0 μg/ml: 36.65; for Lactic Acid Accumulation (μ mol/ml): Table 8, 0 μg/ml: 40.47; for activity at 1.25 µg/mL / activity at 5 µg/mL / activity at 20 µg/mL / activity at 0.31 µg/mL: Bos taurus
Procedure: Inhibition of lactic acid accumulation is determined using a second batch culture fermentation system. Rumen contents from a rumen fistulated bovine are mixed with an equal amount of buffer which contains a 150 mM concentration of glucose. Following 6 hours of incubation at 39° C., lactic acid produced in the fermentation is analyzed by a specific enzymatic assay. The concentration of lactic acid in the fermentation broth is quantified by the increase in absorbance of light at […] when nicotinamide adenine dinucleotide is reduced by lactic acid with the aid of lactate dehydrogenase. […]
(§1) The procedure of Example 2 was followed to compare laidlomycin (L.), sodium L. (Na L.), L.-propionate (L.C3), L. butyrate (L.C4), L. isobutyrate (L. isoC4), L. pentanoate (L.C5) and L. hexanoate (L.C6).
(§2) The procedure of Example 2 was followed to compare the activities of L. heptanoate (L. C7), L. octanoate (L. C8), L. decanoate (L. C10) and L. dodecanoate (L. C12) in increasing propionic acid production and inhibiting lactic acid production.
(§3) The procedure of Example 2 was followed to compare the activities of laidlomycin (L.) acetate (L. C2), L. pentanoate (L. C5), L. stearate (L. C18), L. cyclobutylcarboxylate, L. cyclopentylcarboxylate, L. cyclohexylcarboxylate and L. cyclopropylcarboxylate.

[2] = test system: rumen microorganisms (mixed microbial population of rumen contents); assay: Enhancement of intraruminal propionic acid production, batch culture fermentation of rumen contents; format: cell-based, bovine (rumen-fistulated); conditions: 9 h, 39° C.
Procedure: Enhancement of intraruminal propionic acid production is determined using a batch culture fermentation system. Rumen contents from a rumen-fistulated bovine are mixed with an equal amount of buffer which contains mineral, energy and nitrogen sources required for continued growth and metabolism of the mixed microbial population. Aliquots of this inoculum then are transferred to incubation vessels containing appropriate amounts of sodium laidlomycin (Na L.) (see Example 1A), and L. butyrate (L.C4) (prepared according to the procedure of Example 1A). After 9 hours of incubation at 39° C., concentrations of individual volatile fatty acids in each incubation vessel are determined by gas-liquid chromatography. The net production of each individual volatile fatty acid (acetic [AA], propionic [PA] and butyric [BA]) is calculated as the difference between the concentration after incubation and the concentration before incubation. The molar percentage of propionic acid produced is calculated from the following equation: [formula]
The comparative activities of sodium laidlomycin (Na L.) and the laidlomycin butyrate upon propionic acid and lactic acid production are set forth in Tables 1 and 2 where the concentration is in micrograms per ml (μg/ml).
as §1, §2, §3

[3] = Table 7, 1.25 μg/ml, 0 μg/ml: 36.1
[4] = Table 7, 2.5 μg/ml, 0 μg/ml: 36.1
[5] = Table 7, 5 μg/ml, 0 μg/ml: 36.1
[6] = Table 7, 10 μg/ml, 0 μg/ml: 36.1
[7] = Table 7, 20 μg/ml, 0 μg/ml: 36.1
[8] = Table 7, .313 μg/ml, 0 μg/ml: 36.1
[9] = Table 7, .625 μg/ml, 0 μg/ml: 36.1
[10] = Table 3, 1.25 μg/ml, 0 μg/ml: 28.5
[11] = Table 3, 5 μg/ml, 0 μg/ml: 28.5
[12] = Table 3, 20 μg/ml, 0 μg/ml: 28.5
[13] = Table 3, .31 μg/ml, 0 μg/ml: 28.5

Structure (SMILES) | Lactic Acid Accumulation (μ mol/ml) ([1]; 1.25 μg/ml) | Lactic Acid Accumulation (μ mol/ml) ([1]; 2.5 μg/ml) | Lactic Acid Accumulation (μ mol/ml) ([1]; 5 μg/ml) | Lactic Acid Accumulation (μ mol/ml) ([1]; 10 μg/ml) | Lactic Acid Accumulation (μ mol/ml) ([1]; 20 μg/ml) | Lactic Acid Accumulation (μ mol/ml) ([1]; .313 μg/ml) | Lactic Acid Accumulation (μ mol/ml) ([1]; .625 μg/ml) | % Propionic Acid [2, 3] [%] | % Propionic Acid [2, 4] [%] | % Propionic Acid [2, 5] [%] | % Propionic Acid [2, 6] [%] | % Propionic Acid [2, 7] [%] | % Propionic Acid [2, 8] [%] | % Propionic Acid [2, 9] [%] | % Propionic Acid [2, 10] [%] | % Propionic Acid [2, 11] [%] | % Propionic Acid [2, 12] [%] | % Propionic Acid [2, 13] [%] | also measured
CCCCCCCCCCCC(=O)OCC1(O)OC(C2CC(C)C(C3(C)CCC(C4(C)CCC5(CC(O)C(C)C(C(C)C(OC(=O)CC)C(C)C(=O)O)O5)O4)O3)O2)C(C)CC1C (stereo not drawn) [L. C12, laidlomycin dodecanoate] |  |  |  |  |  |  |  |  |  |  |  |  |  |  |  |  |  |  | Lactic Acid Accumulation ([1]; 1.25 μg/ml): 11.19 µmol/mL; Lactic Acid Accumulation ([1]; 2.5 μg/ml): 1.04 µmol/mL; Lactic Acid Accumulation ([1]; 5 μg/ml): 3.32 µmol/mL; Lactic Acid Accumulation ([1]; 10 μg/ml): 2.16 µmol/mL; Lactic Acid Accumulation ([1]; 20 μg/ml): 1.65 µmol/mL; Lactic Acid Accumulation ([1]; .31 μg/ml): 34.90 µmol/mL; Lactic Acid Accumulation ([1]; .63 μg/ml): 38.01 µmol/mL; % Propionic Acid ([2]; Table 5, 1.25 μg/ml, 0 μg/ml: 35.5): 45.3%; % Propionic Acid ([2]; Table 5, 2.5 μg/ml, 0 μg/ml: 35.5): 46.1%; % Propionic Acid ([2]; Table 5, 5 μg/ml, 0 μg/ml: 35.5): 46.8%; % Propionic Acid ([2]; Table 5, 10 μg/ml, 0 μg/ml: 35.5): 47.7%; % Propionic Acid ([2]; Table 5, 20 μg/ml, 0 μg/ml: 35.5): 48.0%; % Propionic Acid ([2]; Table 5, .31 μg/ml, 0 μg/ml: 35.5): 42.0%; % Propionic Acid ([2]; Table 5, .63 μg/ml, 0 μg/ml: 35.5): 43.8%
CCC(=O)OC(C(C)C(=O)O)C(C)C1OC2(CCC(C)(C3CCC(C)(C4OC(C5OC(O)(COC(=O)C6CC6)C(C)CC5C)CC4C)O3)O2)CC(O)C1C (stereo not drawn) [Cyclopropylcarboxylate, laidlomycin cyclopropylcarboxylate] | 2.50 | 3.16 | 3.17 | 3.53 | 3.96 | 15.54 | 2.12 | 49.7 | 49.3 | 50.9 | 49.6 | 50.7 | 47.7 | 46.4 |  |  |  |  | 
CCC(=O)OC(C(C)C(=O)O)C(C)C1OC2(CCC(C)(C3CCC(C)(C4OC(C5OC(O)(COC(=O)C(C)C)C(C)CC5C)CC4C)O3)O2)CC(O)C1C (stereo not drawn) [L. iso C4, laidlomycin isobutyrate] |  |  |  |  |  |  |  |  |  |  |  |  |  |  | 39.6 | 43.9 | 47.5 | 34.3 | activity at 1.25 µg/mL ([1]; read-out: Accumulation of Lactic Acid - % of Control, Table 4, 1.25 μg/ml): 12%; activity at 5 µg/mL ([1]; read-out: Accumulation of Lactic Acid - % of Control, Table 4, 5 μg/ml): 13%; activity at 20 µg/mL ([1]; read-out: Accumulation of Lactic Acid - % of Control, Table 4, 20 μg/ml): 16%; activity at 0.31 µg/mL ([1]; read-out: Accumulation of Lactic Acid - % of Control, Table 4, .31 μg/ml): 37%
CCC(=O)OCC1(O)OC(C2CC(C)C(C3(C)CCC(C4(C)CCC5(CC(O)C(C)C(C(C)C(OC(=O)CC)C(C)C(=O)O)O5)O4)O3)O2)C(C)CC1C (stereo not drawn) [L. C3, laidlomycin propionate] |  |  |  |  |  |  |  |  |  |  |  |  |  |  | 37.8 | 41.9 | 44.4 | 32.9 | activity at 1.25 µg/mL ([1]; Table 4, 1.25 μg/ml, read-out: Accumulation of Lactic Acid - % of Control): 14%; activity at 5 µg/mL ([1]; Table 4, 5 μg/ml, read-out: Accumulation of Lactic Acid - % of Control): 13%; activity at 20 µg/mL ([1]; Table 4, 20 μg/ml, read-out: Accumulation of Lactic Acid - % of Control): 14%; activity at 0.31 µg/mL ([1]; Table 4, .31 μg/ml, read-out: Accumulation of Lactic Acid - % of Control): 71%
CCC(=O)OC(C(C)C(=O)O)C(C)C1OC2(CCC(C)(C3CCC(C)(C4OC(C5OC(O)(COC(=O)C6CCCC6)C(C)CC5C)CC4C)O3)O2)CC(O)C1C (stereo not drawn) [Cyclopentylcarboxylate, laidlomycin cyclopentylcarboxylate] | 3.63 | 3.73 | 4.08 | 4.53 | 9.66 | 24.75 | 6.79 | 51.9 | 50.3 | 51.1 | 51.6 | 50.0 | 47.1 | 47.9 |  |  |  |  | 
CCC(=O)OC(C(C)C(=O)O)C(C)C1OC2(CCC(C)(C3CCC(C)(C4OC(C5OC(O)(COC(=O)C6CCCCC6)C(C)CC5C)CC4C)O3)O2)CC(O)C1C (stereo not drawn) [Cyclohexylcarboxylate, laidlomycin cyclohexylcarboxylate] | 3.74 | 4.40 | 4.83 | 4.97 | 5.72 | 35.55 | 12.78 | 50.1 | 50.8 | 51.6 | 51.8 | 53.3 | 47.2 | 49.0 |  |  |  |  | 
